# In patent US8299111B2, “Compounds which modulate the CB2 receptor” (Boehringer Ingelheim International GmbH, priority 2006, dated 2012):
# Target: T1, human CB2R (Homo sapiens, UniProt P34972)
# T1 construct: host or cells: CHO cells
# Test: CB2R mediated modulation of cAMP synthesis
# Assay type: cell-based
# Settings: found through the use of the above described assays (binding and cAMP); CHO cells expressing human CB2R, forskolin-stimulated cAMP
# Procedure: B. CB2R Mediated Modulation of cAMP Synthesis:
# CHO cells expressing human CB2R (Euroscreen) were plated at a density of 5000 cells per well in 384 well plates and incubated overnight at 37° C. After removing the media, the cells were treated with test compounds diluted in stimulation buffer containing 1 mM IBMX, 0.25% BSA and 10 uM Forskolin. The assay was incubated for 30 minutes at 37° C. Cells were lysed and the cAMP concentration was measured using DiscoverX -XS cAMP kit, following the manufacturer's protocol. In this setting, agonists will decrease forskolin induced production of cAMP while inverse agonists will further increase forskolin induced production of cAMP. EC50 of agonists were calculated as follows. The maximal amount of cAMP produced by forskolin compared to the level of cAMP inhibited by 1 uM CP55940 is defined as 100%. The EC50 value of each test compound was determined as the concentration at which 50% of the forskolin-stimulated cAMP synthesis was inhibited. Data was analyzed using a four-parameter logistic model. (Model 205 of XLfit 4.0).
# T1 sequence (P34972 whole entry): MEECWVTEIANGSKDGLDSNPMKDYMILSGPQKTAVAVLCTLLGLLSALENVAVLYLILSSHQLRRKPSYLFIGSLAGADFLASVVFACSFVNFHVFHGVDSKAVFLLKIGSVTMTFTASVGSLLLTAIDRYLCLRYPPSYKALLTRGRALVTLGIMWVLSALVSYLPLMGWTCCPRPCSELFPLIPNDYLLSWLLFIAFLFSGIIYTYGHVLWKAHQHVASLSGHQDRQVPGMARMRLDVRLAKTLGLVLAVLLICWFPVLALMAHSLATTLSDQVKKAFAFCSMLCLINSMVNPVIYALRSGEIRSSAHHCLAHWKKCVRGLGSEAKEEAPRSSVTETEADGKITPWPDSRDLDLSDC
row,SMILES,agonistic activity
1,Cc1cc(NC(=O)C(C)(C)S(=O)(=O)c2ccc(Cl)cc2)n(-c2ccccc2)n1 [2-(4-Chloro-benzenesulfonyl)-2-methyl-N-(5-methyl-2-phenyl-2H-pyrazol-3-yl)-propionamide],agonistic activity
2,Cc1cc(NC(=O)C(C)(C)S(=O)(=O)c2ccc(Cl)cc2)no1 [2-(4-Chloro-benzenesulfonyl)-2-methyl-N-(5-methyl-isoxazol-3-yl)-propionamide],agonistic activity
3,"CC(C)(C(=O)Nc1n[nH]c(-c2ccccc2)n1)S(=O)(=O)c1ccc(Cl)cc1 [2-(4-Chloro-benzenesulfonyl)-2-methyl-N-(5-phenyl-2H-[1,2,4]triazol-3-yl)-propionamide]",agonistic activity
4,"CC(C)(C(=O)Nc1nsc(-c2ccccc2)n1)S(=O)(=O)c1ccc(Cl)cc1 [2-(4-Chloro-benzenesulfonyl)-2-methyl-N-(5-phenyl-[1,2,4]thiadiazol-3-yl)-propionamide]",agonistic activity
5,"CC(C)(C(=O)Nc1nnc(-c2ccccc2)s1)S(=O)(=O)c1ccc(Cl)cc1 [2-(4-Chloro-benzenesulfonyl)-2-methyl-N-(5-phenyl-[1,3,4]thiadiazol-2-yl)-propionamide]",agonistic activity
6,CC(C)(C(=O)Nc1ccc(-c2ccccc2)cn1)S(=O)(=O)c1ccc(Cl)cc1 [2-(4-Chloro-benzenesulfonyl)-2-methyl-N-(5-phenyl-pyridin-2-yl)-propionamide],agonistic activity
7,CC(C)(C(=O)Nc1ccc(Oc2ccccc2)nc1)S(=O)(=O)c1ccc(Cl)cc1 [2-(4-Chloro-benzenesulfonyl)-2-methyl-N-(6-phenoxy-pyridin-3-yl)-propionamide],agonistic activity
8,CC(C)(C(=O)Nc1ccc2ccccc2c1)S(=O)(=O)c1ccc(Cl)cc1 [2-(4-Chloro-benzenesulfonyl)-2-methyl-N-naphthalen-2-yl-propionamide],agonistic activity
9,CC(C)(C(=O)Nc1ccccn1)S(=O)(=O)c1ccc(Cl)cc1 [2-(4-Chloro-benzenesulfonyl)-2-methyl-N-pyridin-2-yl-propionamide],agonistic activity
10,CC(C)(C(=O)Nc1ccc2ccccc2n1)S(=O)(=O)c1ccc(Cl)cc1 [2-(4-Chloro-benzenesulfonyl)-2-methyl-N-quinolin-2-yl-propionamide],agonistic activity
11,CC(C)(C(=O)Nc1cnc2ccccc2c1)S(=O)(=O)c1ccc(Cl)cc1 [2-(4-Chloro-benzenesulfonyl)-2-methyl-N-quinolin-3-yl-propionamide],agonistic activity
12,"Cc1nc(NC(=O)C(C)(C)S(=O)(=O)c2ccc(Cl)cc2)sc1C [2-(4-Chloro-benzenesulfonyl)-N-(4,5-dimethyl-thiazol-2-yl)-2-methyl-propionamide]",agonistic activity

# The next lines start with the values.
row,agonistic activity,SMILES
1,agonistic activity,Cc1sc(NC(=O)C(C)(C)S(=O)(=O)c2ccc(Cl)cc2)nc1-c1ccccc1 [2-(4-Chloro-benzenesulfonyl)-2-methyl-N-(5-methyl-4-phenyl-thiazol-2-yl)-propionamide]
2,agonistic activity,Cc1ccc(NC(=O)C(C)(C)S(=O)(=O)c2ccc(Cl)cc2)nc1 [2-(4-Chloro-benzenesulfonyl)-2-methyl-N-(5-methyl-pyridin-2-yl)-propionamide]
3,agonistic activity,CC(C)(C(=O)Nc1cc(-c2ccccc2)on1)S(=O)(=O)c1ccc(Cl)cc1 [2-(4-Chloro-benzenesulfonyl)-2-methyl-N-(5-phenyl-isoxazol-3-yl)-propionamide]
4,agonistic activity,CC(C)(C(=O)Nc1ncc(-c2ccccc2)s1)S(=O)(=O)c1ccc(Cl)cc1 [2-(4-Chloro-benzenesulfonyl)-2-methyl-N-(5-phenyl-thiazol-2-yl)-propionamide]
5,agonistic activity,"CC(C)(C(=O)Nc1nnc(C(F)(F)F)s1)S(=O)(=O)c1ccc(Cl)cc1 [2-(4-Chloro-benzenesulfonyl)-2-methyl-N-(5-trifluoromethyl-[1,3,4]thiadiazol-2-yl)-propionamide]"
6,agonistic activity,CC(C)(C(=O)Nc1ccc(C(F)(F)F)cn1)S(=O)(=O)c1ccc(Cl)cc1 [2-(4-Chloro-benzenesulfonyl)-2-methyl-N-(5-trifluoromethyl-pyridin-2-yl)-propionamide]
7,agonistic activity,Cc1cccc(NC(=O)C(C)(C)S(=O)(=O)c2ccc(Cl)cc2)n1 [2-(4-Chloro-benzenesulfonyl)-2-methyl-N-(6-methyl-pyridin-2-yl)-propionamide]
8,agonistic activity,CC(C)(C(=O)Nc1cccc(C(F)(F)F)n1)S(=O)(=O)c1ccc(Cl)cc1 [2-(4-Chloro-benzenesulfonyl)-2-methyl-N-(6-trifluoromethyl-pyridin-2-yl)-propionamide]
9,agonistic activity,CC(C)(C(=O)Nc1ncc(C2CCOCC2)s1)S(=O)(=O)c1ccc(Cl)cc1 [2-(4-Chloro-benzenesulfonyl)-2-methyl-N-[5-(tetrahydro-pyran-4-yl)-thiazol-2-yl]-propionamide]
10,agonistic activity,CC(C)(C(=O)Nc1cccc2ccccc12)S(=O)(=O)c1ccc(Cl)cc1 [2-(4-Chloro-benzenesulfonyl)-2-methyl-N-naphthalen-1-yl-propionamide]
11,agonistic activity,CC(C)(C(=O)Nc1cccnc1)S(=O)(=O)c1ccc(Cl)cc1 [2-(4-Chloro-benzenesulfonyl)-2-methyl-N-pyridin-3-yl-propionamide]
12,agonistic activity,"Cc1c(-c2ccccc2)nn(C)c1NC(=O)C(C)(C)S(=O)(=O)c1ccc(Cl)cc1 [2-(4-Chloro-benzenesulfonyl)-N-(2,4-dimethyl-5-phenyl-2H-pyrazol-3-yl)-2-methyl-propionamide]"
13,agonistic activity,"Cc1cc(NC(=O)C(C)(C)S(=O)(=O)c2ccc(Cl)cc2)n(C)n1 [2-(4-Chloro-benzenesulfonyl)-N-(2,5-dimethyl-2H-pyrazol-3-yl)-2-methyl-propionamide]"
14,agonistic activity,CC(C)(C(=O)Nc1ccccc1Cl)S(=O)(=O)c1ccc(Cl)cc1 [2-(4-Chloro-benzenesulfonyl)-N-(2-chloro-phenyl)-2-methyl-propionamide]
15,agonistic activity,"Cc1noc(NC(=O)C(C)(C)S(=O)(=O)c2ccc(Cl)cc2)c1C [2-(4-Chloro-benzenesulfonyl)-N-(3,4-dimethyl-isoxazol-5-yl)-2-methyl-propionamide]"
16,agonistic activity,CC(C)(C(=O)Nc1cccc(Cl)c1)S(=O)(=O)c1ccc(Cl)cc1 [2-(4-Chloro-benzenesulfonyl)-N-(3-chloro-phenyl)-2-methyl-propionamide]
17,agonistic activity,CC(C)c1cc(NC(=O)C(C)(C)S(=O)(=O)c2ccc(Cl)cc2)on1 [2-(4-Chloro-benzenesulfonyl)-N-(3-isopropyl-isoxazol-5-yl)-2-methyl-propionamide]
18,agonistic activity,"Cc1onc(NC(=O)C(C)(C)S(=O)(=O)c2ccc(Cl)cc2)c1C [2-(4-Chloro-benzenesulfonyl)-N-(4,5-dimethyl-isoxazol-3-yl)-2-methyl-propionamide]"
